Where a name gives a salt, the structure may show the parent alone. Read-outs that look alike come from different tables or passages of the source.
Key:
[1] = Stability of pitavastatin calcium crystalline form at 40° C./75% RH and 25° C./60% RH (water by KF, related substances); assay type: physicochemical
Procedure: In general, the stability of pitavastatin calcium crystalline form having water content 5% wt/wt at 40° C./75% RH and 25° C./60% RH is shown in Table-1.

[2] = cited from earlier work; for purity / water content / total impurities: US '987 A1 Table 1; for total impurities: in % (unit assumed)
[3] = system: patients with hypercholesterolaemia; conditions: cited from earlier work
[4] = 1 month, 40° C. ± 2° C., RH 75% ± 5%
[5] = 2 month, 40° C. ± 2° C., RH 75% ± 5%
[6] = 3 month, 25° C. ± 2° C., RH 60% ± 5%
[7] = 3 month, 40° C. ± 2° C., RH 75% ± 5%
[8] = kept at 40° C. (air tight), after 90 days
[9] = kept at 40° C. (air tight), initial
[10] = kept in open air, after 90 days

Work on `O=C(O)C[C@H](O)C[C@H](O)/C=C/c1c(C2CC2)nc2ccccc2c1-c1ccc(F)cc1` [pitavastatin calcium, (3R,5S)-7-[2-cyclopropyl-4-(4-flourophenyl)-quinolin-3-yl]-3,5-dihydroxy-6-(E)-heptenoic acid calcium salt] yielded a Related Substances: 5-oxo [1, 4] of 0.11%, a Related Substances: Desflouro [1, 4] of 0.05% and a Related Substances: Diastereomer [1, 4] of 0.11%. For the same compound, the Related Substances: Total Impurities [1, 4] was 0.28%, the “Water by KF” value [1, 4] was 2.9 % w/w and the Related Substances: 5-oxo [1, 5] was 0.15%. For the same compound, the Related Substances: Desflouro [1, 5] was 0.05%, the Related Substances: Diastereomer [1, 5] was 0.11% and the Related Substances: Total Impurities [1, 5] was 0.31%. For the same compound, the “Water by KF” value [1, 5] was 4.3 % w/w, the Related Substances: 5-oxo [1, 6] was 0.12% and the Related Substances: Desflouro [1, 6] was 0.05%. It also gave a Related Substances: Diastereomer [1, 6] of 0.12%, a Related Substances: Lactone [1, 6] of 0.07% and a Related Substances: Total Impurities [1, 6] of 0.36%. For the same compound, the “Water by KF” value [1, 6] was 3.9 % w/w, the Related Substances: 5-oxo [1, 7] was 0.14% and the Related Substances: Desflouro [1, 7] was 0.05%. It also gave a Related Substances: Diastereomer [1, 7] of 0.11%, a Related Substances: Lactone [1, 7] of 0.09% and a Related Substances: Total Impurities [1, 7] of 0.39%. For the same compound, the “Water by KF” value [1, 7] was 4.2 % w/w, the Related Substances: 5-oxo ([1]; Initial) was 0.07% and the Related Substances: Desflouro ([1]; Initial) was 0.05%. The Related Substances: Diastereomer ([1]; Initial) was 0.17%, the Related Substances: Total Impurities ([1]; Initial) was 0.32% and the “Water by KF” value ([1]; Initial) was 3.0 % w/w. The purity [2, 8] was 99.64, the water content [2, 8] was 7.81% and the total impurities [2, 8] was 0.211. The purity [2, 9] was 99.38%, the water content [2, 9] was “about 7.89” and the total impurities [2, 9] was 0.179. The purity [2, 10] was 96.49, the water content [2, 10] was 1.77% and the total impurities [2, 10] was 2.099. For the same compound, the purity ([2]; kept in open air, initial) was 99.38%, the water content ([2]; kept in open air, initial) was “about 7.89” and the total impurities ([2]; kept in open air, initial) was 0.179. For the same compound, the “stability during the storage” value ([2]; pitavastatin calcium which has become amorphous, reported in US '987 A1) was “very poor stability” and the safety and tolerability ([3]; treatment of patients with hypercholesterolaemia) was “safe and well tolerated”.

In the case of `O=C(O)C[C@H](O)C[C@H](O)/C=C/c1c(C2CC2)nc2ccccc2c1-c1ccc(F)cc1` [pitavastatin], the potency ([3]; on the basis of reported data, dose-dependent) is listed as “equivalent to that of atorvastatin”.

Reference: patent US9034901B2, “Pitavastatin calcium and process for its preparation” (Cadila Healthcare Limited, priority 2010, dated 2015)
